What all share (type): biochemical
One test addresses T1, Btk (Homo sapiens, UniProt Q06187).
T1 construct: purified from insect cells as a full-length construct containing a N-terminal 6X-His tag; His6 (N); made in house; host or cells: insect cells (Method C)
Description: Btk in vitro inhibitory activity (one of Method A TR-FRET, Method B electrophoretic mobility shift, Method C radiometric filter binding). The note with it: wild-type Btk; read-out: Btk-WT IC50. In outline:
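Method A: TR-FRET with 0.5 nM Btk at [ATP]=Km, EDTA-quenched, 665/615 nm ratio; Ki(app) converted to IC50. Method B: 1 nM full-length His6 human BTK, 1 μM FAM peptide, pH 7.5, mobility-shift product/sum ratio, 12-point 4-parameter fit. Method C: radiometric filter binding, 8 nM His-tagged BTK, 0.2 mg/mL poly-Glu-Tyr.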
(In general: Mobility shift assays separate free from complexed probe on a gel.)

The next test deals with T2, TEC (Homo sapiens, UniProt P42680).
T2 sequence (P42680 1-631): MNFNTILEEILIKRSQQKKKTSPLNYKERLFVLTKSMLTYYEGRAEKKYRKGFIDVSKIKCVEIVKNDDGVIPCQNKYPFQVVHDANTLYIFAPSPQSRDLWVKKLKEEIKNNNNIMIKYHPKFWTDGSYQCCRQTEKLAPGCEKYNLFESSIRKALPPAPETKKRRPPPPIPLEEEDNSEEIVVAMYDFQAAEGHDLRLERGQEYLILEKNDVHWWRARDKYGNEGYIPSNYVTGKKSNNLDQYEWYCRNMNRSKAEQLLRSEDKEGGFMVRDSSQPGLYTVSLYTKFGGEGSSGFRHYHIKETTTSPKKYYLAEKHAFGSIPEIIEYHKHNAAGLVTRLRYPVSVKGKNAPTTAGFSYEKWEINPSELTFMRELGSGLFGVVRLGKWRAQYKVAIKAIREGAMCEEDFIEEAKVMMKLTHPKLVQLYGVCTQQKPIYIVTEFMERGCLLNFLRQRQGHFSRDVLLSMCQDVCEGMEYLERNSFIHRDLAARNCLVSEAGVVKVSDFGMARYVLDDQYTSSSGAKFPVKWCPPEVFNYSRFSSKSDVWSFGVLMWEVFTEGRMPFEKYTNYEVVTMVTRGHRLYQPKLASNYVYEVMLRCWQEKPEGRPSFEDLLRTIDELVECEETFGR
Description: Inhibition of a panel of kinases (in vitro HotSpot kinase assay, 33P-ATP, 1 μM ATP). The note with it: for IC50: HotSpot kinase assay, 1 μM ATP; for TEC/Btk: ratio of TEC IC50 to Btk IC50 (selectivity). In outline:
(§1)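 Degree of kinase inhibition is determined in vitro using isolated enzymes, a matched substrate and radiolabelled ATP (1 μM).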

A further test addresses T3, panel of kinases (Homo sapiens, UniProt P51813).
T3 sequence (P51813 1-675): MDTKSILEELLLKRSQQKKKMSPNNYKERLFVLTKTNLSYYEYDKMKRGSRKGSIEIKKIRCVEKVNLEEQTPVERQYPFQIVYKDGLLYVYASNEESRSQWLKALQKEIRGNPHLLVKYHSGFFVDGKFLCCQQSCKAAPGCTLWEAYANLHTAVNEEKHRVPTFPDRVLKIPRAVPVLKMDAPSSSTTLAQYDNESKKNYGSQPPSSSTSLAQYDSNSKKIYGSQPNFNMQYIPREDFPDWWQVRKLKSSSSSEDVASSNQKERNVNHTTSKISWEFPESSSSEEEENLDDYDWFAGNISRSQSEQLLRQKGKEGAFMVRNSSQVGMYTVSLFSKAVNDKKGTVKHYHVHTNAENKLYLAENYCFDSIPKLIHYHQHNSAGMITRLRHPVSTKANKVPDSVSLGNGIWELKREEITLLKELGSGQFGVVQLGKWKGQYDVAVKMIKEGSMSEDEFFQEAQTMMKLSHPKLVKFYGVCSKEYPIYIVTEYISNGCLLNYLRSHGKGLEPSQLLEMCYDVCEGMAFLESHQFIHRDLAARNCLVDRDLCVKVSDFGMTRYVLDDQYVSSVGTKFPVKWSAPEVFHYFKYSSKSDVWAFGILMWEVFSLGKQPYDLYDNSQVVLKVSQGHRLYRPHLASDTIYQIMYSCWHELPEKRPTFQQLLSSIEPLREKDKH
The test can be described thus: Inhibition of a panel of kinases (in vitro HotSpot kinase assay, 33P-ATP, 1 μM ATP), other kinases. The conditions noted are these: BMX wild-type, read-out: BMX-WT IC50. In a few lines:
as §1

The term IC50 denotes the concentration needed to halve the response being measured.

SMILES strings stand for the structures.

T1 sequence (Q06187 whole entry): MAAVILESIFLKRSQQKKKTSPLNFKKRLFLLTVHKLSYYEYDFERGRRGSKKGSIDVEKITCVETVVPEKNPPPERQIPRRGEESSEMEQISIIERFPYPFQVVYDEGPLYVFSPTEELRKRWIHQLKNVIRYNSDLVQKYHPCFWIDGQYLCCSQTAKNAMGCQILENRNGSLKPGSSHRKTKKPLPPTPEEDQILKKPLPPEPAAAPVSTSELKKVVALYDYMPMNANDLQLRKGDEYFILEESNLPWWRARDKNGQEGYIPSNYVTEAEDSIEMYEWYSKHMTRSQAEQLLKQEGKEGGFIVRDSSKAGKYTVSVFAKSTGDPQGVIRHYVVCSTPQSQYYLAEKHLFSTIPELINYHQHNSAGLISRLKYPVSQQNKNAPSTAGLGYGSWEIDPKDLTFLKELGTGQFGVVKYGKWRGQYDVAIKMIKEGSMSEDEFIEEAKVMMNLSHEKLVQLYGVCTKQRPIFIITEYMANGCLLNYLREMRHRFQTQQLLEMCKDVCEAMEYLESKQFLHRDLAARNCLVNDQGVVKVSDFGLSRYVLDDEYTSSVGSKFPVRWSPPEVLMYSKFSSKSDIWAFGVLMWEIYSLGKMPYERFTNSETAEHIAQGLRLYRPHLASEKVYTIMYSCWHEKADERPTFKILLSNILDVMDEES

Turning to `C[C@H]1CC[C@@H](Nc2n[nH]c3nccc(-c4ccc(CNC(=O)c5noc(C(C)(C)C)n5)c(F)c4)c23)CN1C(=O)N1CCOCC1` [Example 230, 5-tert-butyl-N-{[2-fluoro-4-(3-{[(3R,6S)-6-methyl-1-(morpholine-4-carbonyl)piperidin-3-yl]amino}-1H-pyrazolo[3,4-b]pyridin-4-yl)phenyl]methyl}-1,2,4-oxadiazole-3-carboxamide], the IC50 at Btk was 0.412 nM; against TEC it was 472 nM; at panel of kinases, 856 nM. In addition, at TEC, the TEC/Btk came to 1146.

For the compound `C[C@@H](NC(=O)c1nc(C(C)(C)C)no1)c1ccc(-c2ccnc3[nH]nc(N4CCNCC4)c23)cc1` [Example 238, 3-tert-butyl-N-[(1R)-1-{4-[3-(piperazin-1-yl)-1H-pyrazolo[3,4-b]pyridin-4-yl]phenyl}ethyl]-1,2,4-oxadiazole-5-carboxamide], the IC50 was 4.24 nM on Btk, 4610 nM against TEC and 2670 nM on panel of kinases. For the same compound, the TEC/Btk on TEC is listed as 1087.

In the case of `C[C@H]1CC[C@@H](Nc2n[nH]c3nccc(-c4ccc(CN5CCn6c(cc7c6CC(C)(C)C7)C5=O)c(F)c4)c23)CN1C(=O)N(C)C` [Example 239, (2S,5R)-5-[(4-{4-[(7,7-dimethyl-1-oxo-1,3,4,6,7,8-hexahydro-2H-cyclopenta[4,5]pyrrolo[1,2-a]pyrazin-2-yl)methyl]-3-fluorophenyl}-1H-pyrazolo[3,4-b]pyridin-3-yl)amino]-N,N,2-trimethylpiperidine-1-carboxamide], the IC50 at Btk worked out at 10.1 nM; on TEC, 3880 nM; at panel of kinases, 3780 nM. At TEC, the TEC/Btk was 384.

With `C[C@H]1CC[C@@H](Nc2n[nH]c3nccc(-c4ccc(CN5CCn6c(cc7c6CCCC7)C5=O)c(F)c4)c23)CN1C(=O)N(C)C` [Example 240, (2S,5R)-5-[(4-{3-fluoro-4-[(1-oxo-3,4,6,7,8,9-hexahydropyrazino[1,2-a]indol-2(1H)-yl)methyl]phenyl}-1H-pyrazolo[3,4-b]pyridin-3-yl)amino]-N,N,2-trimethylpiperidine-1-carboxamide], the IC50 on Btk is 5.5 nM; at TEC it was 5030 nM; on panel of kinases, 387 nM. Besides, the TEC/Btk at TEC was 915.

For the compound `CN1CCCN([C@@H]2CCN(c3n[nH]c4nccc(-c5ccc(CNC(=O)c6nc(C(C)(C)C)no6)c(F)c5)c34)C2)C1=O` [Example 241, 3-tert-butyl-N-[(2-fluoro-4-{3-[(3R)-3-(3-methyl-2-oxo-1,3-diazinan-1-yl)pyrrolidin-1-yl]-1H-pyrazolo[3,4-b]pyridin-4-yl}phenyl)methyl]-1,2,4-oxadiazole-5-carboxamide], the 50% inhibitory concentration (IC50) on Btk was found to be 4.73 nM; on TEC, 5560 nM; at panel of kinases, 5010 nM. Moreover, the TEC/Btk at TEC is 1175.

For `C[C@@H](NC(=O)c1nc(C(C)(C)C)no1)c1ccc(-c2ccnc3[nH]nc(C4=CCCN(C(=O)N(C)C)C4)c23)cc1` [Example 243, 5-[4-(4-{(1R)-1-[(3-tert-butyl-1,2,4-oxadiazole-5-carbonyl)amino]ethyl}phenyl)-1H-pyrazolo[3,4-b]pyridin-3-yl]-N,N-dimethyl-3,6-dihydropyridine-1(2H)-carboxamide], the IC50 on Btk turned out to be 4.39 nM; against TEC, 5880 nM; on panel of kinases it was 4450 nM. Besides, the TEC/Btk at TEC was determined as 1339.

Consider `C[C@@H](NC(=O)c1nc(C(C)(C)C)no1)c1ccc(-c2ccnc3[nH]nc(C4CCN(C(=O)N(C)C)CC4)c23)cc1` [Example 244, 4-[4-(4-{(1R)-1-[(3-tert-butyl-1,2,4-oxadiazole-5-carbonyl)amino]ethyl}phenyl)-1H-pyrazolo[3,4-b]pyridin-3-yl]-N,N-dimethylpiperidine-1-carboxamide], for which the IC50 on Btk stood at 1.63 nM; at TEC, 9550 nM; at panel of kinases, 5870 nM. For the same compound, the TEC/Btk on TEC was 5859.

Turning to `CN1CCCN([C@@H]2CCN(c3n[nH]c4nccc(-c5ccc(CNC(=O)c6noc(C(C)(C)C)n6)c(F)c5)c34)C2)C1=O` [Example 250, 5-tert-butyl-N-[(2-fluoro-4-{3-[(3R)-3-(3-methyl-2-oxo-1,3-diazinan-1-yl)pyrrolidin-1-yl]-1H-pyrazolo[3,4-b]pyridin-4-yl}phenyl)methyl]-1,2,4-oxadiazole-3-carboxamide], the IC50 was found to be 11.7 nM on Btk, 6920 nM against TEC and 8370 nM on panel of kinases. Moreover, the TEC/Btk on TEC came out at 591.

As to `CC(C)(C)c1nc(C(=O)NCc2ccc(-c3ccnc4[nH]nc(N5CCC[C@H](C(=O)O)C5)c34)cc2F)no1` [Example 252, (3S)-1-[4-(4-{[(5-tert-butyl-1,2,4-oxadiazole-3-carbonyl)amino]methyl}-3-fluorophenyl)-1H-pyrazolo[3,4-b]pyridin-3-yl]piperidine-3-carboxylic acid], the IC50 amounted to 0.511 nM at Btk, 386 nM against TEC and 529 nM on panel of kinases. Also, the TEC/Btk at TEC turned out to be 755.

For the compound `CC(C)(C)c1noc(C(=O)NCc2ccc(-c3ccnc4[nH]nc(C5CC5)c34)cc2F)n1` [Example 255, 3-tert-butyl-N-{[4-(3-cyclopropyl-1H-pyrazolo[3,4-b]pyridin-4-yl)-2-fluorophenyl]methyl}-1,2,4-oxadiazole-5-carboxamide], the half-maximal inhibitory concentration (IC50) is 1.26 nM at Btk, 1630 nM on TEC and 1360 nM on panel of kinases. For the same compound, at TEC, the TEC/Btk is reported as 1294.

On to `C[C@H]1CC[C@@H](Nc2n[nH]c3nccc(-c4ccc(CNC(=O)c5noc(C(C)(C)C)n5)cc4)c23)CN1C(=O)N(C)C` [Example 256, (2S,5R)-5-{[4-(4-{[(5-tert-butyl-1,2,4-oxadiazole-3-carbonyl)amino]methyl}phenyl)-1H-pyrazolo[3,4-b]pyridin-3-yl]amino}-N,N,2-trimethylpiperidine-1-carboxamide], for which the half-maximal inhibitory concentration (IC50) amounted to 8.35 nM at Btk, 3590 nM against TEC and 5440 nM on panel of kinases. The TEC/Btk on TEC came out at 430.

Consider `CC(C)(C)c1nc(C(=O)NCc2ccc(-c3ccnc4[nH]nc(NC5CCCC5)c34)cc2F)no1` [Example 257, 5-tert-butyl-N-({4-[3-(cyclopentylamino)-1H-pyrazolo[3,4-b]pyridin-4-yl]-2-fluorophenyl}methyl)-1,2,4-oxadiazole-3-carboxamide], for which the IC50 on Btk stood at 10.1 nM; on TEC, 5070 nM; at panel of kinases, 3960 nM. The TEC/Btk at TEC was 502.

Turning to `C=CC(=O)N1CC[C@@H](Nc2n[nH]c3nccc(-c4cccc(NC(=O)c5ccc(C(C)(C)C)cc5)c4)c23)C1` [Example 263, 4-tert-butyl-N-[3-(3-{[(3R)-1-(prop-2-enoyl)pyrrolidin-3-yl]amino}-1H-pyrazolo[3,4-b]pyridin-4-yl)phenyl]benzamide], the IC50 on Btk was 11.6 nM; against TEC, 1070 nM; on panel of kinases, 440 nM. Moreover, the TEC/Btk on TEC was determined as 092.

With `C=CC(=O)N1CC[C@@H](Nc2n[nH]c3nccc(-c4cccc(NC(=O)c5noc(C(C)(C)C)n5)c4)c23)C1` [Example 265, 5-tert-butyl-N-[3-(3-{[(3R)-1-(prop-2-enoyl)pyrrolidin-3-yl]amino}-1H-pyrazolo[3,4-b]pyridin-4-yl)phenyl]-1,2,4-oxadiazole-3-carboxamide], the figures for the 50% inhibitory concentration (IC50) on Btk, at TEC and on panel of kinases were 200 nM, 2780 nM and 875 nM, respectively. Moreover, the TEC/Btk at TEC was 014.

For the origin of these results see US20180194762A1 (Pharmacyclics LLC, priority 2017, published 2018).
